Assays:
[1] = hPXR/CYP3A mice pretreated with RCP (60 mg/kg, po, bid, 4 days), then oral RTV 20 mg/kg + NMV 60 mg/kg
CYP3A4 mRNA = details: hPXR/CYP3A mice; RIF 50 mg/kg in diet 7 days; RCP 60 mg/kg po bid 4 days
CYP3A protein = details: RCP 60 mg/kg po bid 4 days
CYP2C19 = CYP2C19 (Homo sapiens, UniProt P33261); details: 20 μmol/L NMV, 10 pmol CYP, 1 mmol/L NADPH, 37 °C, 1 h
CYP3A5 = CYP3A5 (Homo sapiens, UniProt P20815); details: 20 μmol/L NMV, 10 pmol CYP, 1 mmol/L NADPH, 37 °C, 1 h
CYP2C9 = CYP2C9 (Homo sapiens, UniProt P11712); details: 20 μmol/L NMV, 10 pmol CYP, 1 mmol/L NADPH, 37 °C, 1 h
CYP2B6 = target: T1, CYP2B6 (Homo sapiens, UniProt P20813); details: 20 μmol/L NMV, 10 pmol CYP, 1 mmol/L NADPH, 37 °C, 1 h
T1 sequence (P20813 1-491): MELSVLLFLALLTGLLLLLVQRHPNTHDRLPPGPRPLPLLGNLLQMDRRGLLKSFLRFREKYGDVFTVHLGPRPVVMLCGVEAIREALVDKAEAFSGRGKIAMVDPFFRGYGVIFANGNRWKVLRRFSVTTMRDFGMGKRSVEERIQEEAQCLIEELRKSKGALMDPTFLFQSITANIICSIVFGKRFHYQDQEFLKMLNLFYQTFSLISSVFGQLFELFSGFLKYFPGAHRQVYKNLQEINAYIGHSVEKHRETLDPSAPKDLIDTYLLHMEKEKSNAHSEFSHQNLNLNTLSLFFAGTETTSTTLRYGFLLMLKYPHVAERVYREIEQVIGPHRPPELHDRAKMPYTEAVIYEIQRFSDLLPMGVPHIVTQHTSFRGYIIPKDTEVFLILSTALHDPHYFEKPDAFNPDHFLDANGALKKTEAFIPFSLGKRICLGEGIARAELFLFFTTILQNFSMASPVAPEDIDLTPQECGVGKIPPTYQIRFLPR

CYP3A4 = CYP3A4 (Homo sapiens, UniProt P08684); details: 20 μmol/L NMV, 10 pmol CYP, 1 mmol/L NADPH, 37 °C, 1 h
[2] = cited from earlier work
CYP1A2 = target: T2, CYP1A2 (Homo sapiens, UniProt P05177); details: 20 μmol/L NMV, 10 pmol CYP, 1 mmol/L NADPH, 37 °C, 1 h
T2 sequence (P05177 1-516): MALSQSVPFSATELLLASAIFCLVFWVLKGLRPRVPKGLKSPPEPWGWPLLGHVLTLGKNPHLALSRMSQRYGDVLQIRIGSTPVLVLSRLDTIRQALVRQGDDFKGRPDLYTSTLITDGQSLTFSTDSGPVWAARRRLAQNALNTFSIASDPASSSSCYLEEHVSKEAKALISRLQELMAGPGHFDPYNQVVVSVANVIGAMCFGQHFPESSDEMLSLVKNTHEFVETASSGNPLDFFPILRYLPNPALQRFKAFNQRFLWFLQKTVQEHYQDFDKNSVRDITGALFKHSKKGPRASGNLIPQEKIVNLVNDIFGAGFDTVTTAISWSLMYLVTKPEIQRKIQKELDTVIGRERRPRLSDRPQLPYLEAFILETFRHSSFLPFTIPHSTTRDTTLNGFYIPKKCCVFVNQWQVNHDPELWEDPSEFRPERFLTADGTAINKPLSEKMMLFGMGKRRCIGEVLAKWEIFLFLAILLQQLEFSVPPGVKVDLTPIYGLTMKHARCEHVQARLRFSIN

[3] = 20 μmol/L NMV, 0.1 mg HLM, 1 mmol/L NADPH, 37 °C, 1 h
CYP2E1 = CYP2E1 (Homo sapiens, UniProt P05181); details: 20 μmol/L NMV, 10 pmol CYP, 1 mmol/L NADPH, 37 °C, 1 h
CYP2A6 = target: T3, CYP2A6 (Homo sapiens, UniProt P11509); details: 20 μmol/L NMV, 10 pmol CYP, 1 mmol/L NADPH, 37 °C, 1 h
T3 sequence (P11509 1-494): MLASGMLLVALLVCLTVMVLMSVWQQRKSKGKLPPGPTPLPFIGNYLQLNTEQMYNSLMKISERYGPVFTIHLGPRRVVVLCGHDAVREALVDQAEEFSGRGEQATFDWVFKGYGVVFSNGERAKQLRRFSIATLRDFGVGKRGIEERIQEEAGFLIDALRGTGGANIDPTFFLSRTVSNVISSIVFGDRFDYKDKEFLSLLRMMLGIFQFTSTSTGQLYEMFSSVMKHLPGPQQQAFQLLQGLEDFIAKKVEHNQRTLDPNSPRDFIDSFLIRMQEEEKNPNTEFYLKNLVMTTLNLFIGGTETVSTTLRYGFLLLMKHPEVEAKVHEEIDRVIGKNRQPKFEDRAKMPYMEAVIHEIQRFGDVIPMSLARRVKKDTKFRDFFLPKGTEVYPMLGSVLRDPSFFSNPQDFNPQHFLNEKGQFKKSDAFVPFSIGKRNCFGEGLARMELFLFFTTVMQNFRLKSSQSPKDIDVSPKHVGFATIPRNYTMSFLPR

CYP2D6 = CYP2D6 (Homo sapiens, UniProt P10635); details: 20 μmol/L NMV, 10 pmol CYP, 1 mmol/L NADPH, 37 °C, 1 h
[4] = clinical studies, co-administration of carbamazepine (CYP3A inducer) ref 16

Chain of CYP2C19 (P33261 whole entry): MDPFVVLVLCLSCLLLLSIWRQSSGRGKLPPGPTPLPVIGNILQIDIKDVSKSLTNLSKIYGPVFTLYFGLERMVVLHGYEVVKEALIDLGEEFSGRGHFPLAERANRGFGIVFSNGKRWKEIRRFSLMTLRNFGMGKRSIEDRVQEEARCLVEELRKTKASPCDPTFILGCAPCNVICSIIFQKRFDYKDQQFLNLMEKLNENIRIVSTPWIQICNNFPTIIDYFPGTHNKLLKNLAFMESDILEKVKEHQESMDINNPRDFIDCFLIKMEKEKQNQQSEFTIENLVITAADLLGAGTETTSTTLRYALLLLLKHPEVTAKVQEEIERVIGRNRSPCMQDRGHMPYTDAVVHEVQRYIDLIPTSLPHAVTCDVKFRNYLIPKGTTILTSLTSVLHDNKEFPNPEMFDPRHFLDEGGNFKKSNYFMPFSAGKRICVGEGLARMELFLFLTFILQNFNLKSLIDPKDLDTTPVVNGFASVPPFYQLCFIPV
Chain of CYP2C9 (P11712 whole entry): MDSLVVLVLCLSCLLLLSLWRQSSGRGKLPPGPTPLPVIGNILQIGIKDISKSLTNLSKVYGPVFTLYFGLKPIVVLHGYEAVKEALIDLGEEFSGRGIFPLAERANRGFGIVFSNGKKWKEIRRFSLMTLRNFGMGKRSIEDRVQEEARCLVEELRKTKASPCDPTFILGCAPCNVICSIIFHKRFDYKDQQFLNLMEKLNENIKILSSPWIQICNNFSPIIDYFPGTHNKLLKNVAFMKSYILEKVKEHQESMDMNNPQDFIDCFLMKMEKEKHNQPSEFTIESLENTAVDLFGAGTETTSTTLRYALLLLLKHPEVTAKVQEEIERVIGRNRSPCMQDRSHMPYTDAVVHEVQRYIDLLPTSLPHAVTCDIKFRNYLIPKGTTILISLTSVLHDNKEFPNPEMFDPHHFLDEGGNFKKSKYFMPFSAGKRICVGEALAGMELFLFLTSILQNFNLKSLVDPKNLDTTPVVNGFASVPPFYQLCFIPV
Chain of CYP3A4 (P08684 whole entry): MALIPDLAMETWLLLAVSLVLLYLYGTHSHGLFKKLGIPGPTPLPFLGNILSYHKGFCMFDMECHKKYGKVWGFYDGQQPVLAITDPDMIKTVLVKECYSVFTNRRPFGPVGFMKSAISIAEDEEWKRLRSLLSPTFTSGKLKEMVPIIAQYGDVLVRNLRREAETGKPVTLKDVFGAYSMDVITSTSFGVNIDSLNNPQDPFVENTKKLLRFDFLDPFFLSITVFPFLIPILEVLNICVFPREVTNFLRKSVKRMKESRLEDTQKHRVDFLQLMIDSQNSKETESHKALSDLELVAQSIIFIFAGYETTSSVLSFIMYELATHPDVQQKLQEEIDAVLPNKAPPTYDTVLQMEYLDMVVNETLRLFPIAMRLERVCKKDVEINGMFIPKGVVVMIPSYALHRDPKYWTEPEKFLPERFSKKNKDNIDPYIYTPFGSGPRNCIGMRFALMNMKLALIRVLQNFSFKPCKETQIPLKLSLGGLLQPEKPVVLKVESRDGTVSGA
Chain of CYP3A5 (P20815 whole entry): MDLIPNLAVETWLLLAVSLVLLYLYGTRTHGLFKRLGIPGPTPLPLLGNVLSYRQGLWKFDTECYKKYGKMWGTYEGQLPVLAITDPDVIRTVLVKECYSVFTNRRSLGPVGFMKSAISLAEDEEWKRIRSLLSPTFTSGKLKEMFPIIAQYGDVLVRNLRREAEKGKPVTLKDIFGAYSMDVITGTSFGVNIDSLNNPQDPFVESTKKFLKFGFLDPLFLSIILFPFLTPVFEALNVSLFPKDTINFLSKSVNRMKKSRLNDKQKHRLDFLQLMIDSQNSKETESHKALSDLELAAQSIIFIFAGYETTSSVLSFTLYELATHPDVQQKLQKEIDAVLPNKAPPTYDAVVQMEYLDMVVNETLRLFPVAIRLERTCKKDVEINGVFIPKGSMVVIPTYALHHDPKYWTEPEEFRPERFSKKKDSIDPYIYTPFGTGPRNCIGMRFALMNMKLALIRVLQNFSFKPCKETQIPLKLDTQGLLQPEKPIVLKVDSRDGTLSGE
Chain of CYP2E1 (P05181 whole entry): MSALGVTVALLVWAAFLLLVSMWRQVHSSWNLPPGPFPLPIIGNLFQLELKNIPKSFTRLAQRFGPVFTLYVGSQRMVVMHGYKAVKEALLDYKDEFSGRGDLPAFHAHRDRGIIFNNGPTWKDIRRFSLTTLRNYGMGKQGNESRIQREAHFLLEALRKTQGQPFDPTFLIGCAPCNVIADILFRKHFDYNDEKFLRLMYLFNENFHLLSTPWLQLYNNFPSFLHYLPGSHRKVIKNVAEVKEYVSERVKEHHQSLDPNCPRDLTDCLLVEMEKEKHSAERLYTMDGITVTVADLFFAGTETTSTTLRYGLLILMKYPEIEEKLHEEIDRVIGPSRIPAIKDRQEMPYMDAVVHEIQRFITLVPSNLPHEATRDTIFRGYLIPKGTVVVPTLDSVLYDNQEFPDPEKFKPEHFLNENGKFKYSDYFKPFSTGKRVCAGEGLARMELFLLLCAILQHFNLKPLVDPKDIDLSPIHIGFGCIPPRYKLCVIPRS
Chain of CYP2D6 (P10635 whole entry): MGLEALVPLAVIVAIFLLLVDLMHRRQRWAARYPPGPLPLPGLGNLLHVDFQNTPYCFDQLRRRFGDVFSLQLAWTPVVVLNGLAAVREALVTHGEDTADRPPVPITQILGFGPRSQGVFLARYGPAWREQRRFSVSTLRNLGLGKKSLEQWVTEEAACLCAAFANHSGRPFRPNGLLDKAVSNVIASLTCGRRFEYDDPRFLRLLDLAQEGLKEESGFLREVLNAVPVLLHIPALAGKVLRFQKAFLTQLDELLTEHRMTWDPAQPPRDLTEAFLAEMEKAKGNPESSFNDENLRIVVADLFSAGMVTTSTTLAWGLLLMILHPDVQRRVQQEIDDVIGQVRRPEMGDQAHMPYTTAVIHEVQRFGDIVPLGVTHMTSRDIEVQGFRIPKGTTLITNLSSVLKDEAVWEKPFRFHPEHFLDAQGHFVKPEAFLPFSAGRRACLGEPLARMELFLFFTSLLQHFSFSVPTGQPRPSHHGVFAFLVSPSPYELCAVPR

SMILES: CC(C)c1nc(CN(C)C(=O)N[C@H](C(=O)N[C@@H](Cc2ccccc2)C[C@H](O)[C@H](Cc2ccccc2)NC(=O)OCc2cncs2)C(C)C)cs1 [RTV, ritonavir]
- change of AUC in serum vs control group (in words) [1]: also decreased
- change of Cmax in serum vs control group (in words) [1]: also decreased

SMILES: CC[C@H]1CN2CC[C@]3(C(=O)Nc4ccccc43)[C@@H]2C[C@@H]1/C(=C\OC)C(=O)OC [RCP, rhynchophylline]
- mRNA expression of CYP3A4 in the liver vs control (CYP3A4 mRNA): significantly upregulated
- increase of protein level of CYP3A in the liver vs control (CYP3A protein; Pxr-null/CYP3A mice): but not in Pxr-null/CYP3A mice
- protein level of CYP3A in the liver vs control (CYP3A protein; hPXR/CYP3A mice, RIF 50 mg/kg in diet 7 days): increased the protein level of CYP3A

SMILES: CC(C)(C)[C@H](NC(=O)C(F)(F)F)C(=O)N1C[C@H]2[C@@H]([C@H]1C(=O)N[C@H](C#N)C[C@@H]1CCNC1=O)C2(C)C [NMV, nirmatrelvir]
- contribution of CYP2C19 to NMV metabolism (CYP2C19): did not contribute to NMV metabolism
- contribution of CYP3A5 to NMV metabolism (formation of M1–M7) (CYP3A5): also involved in the 7 metabolic pathways of NMV, especially for the production of M4 and M5
- contribution of CYP2C9 to NMV metabolism (CYP2C9): did not contribute to NMV metabolism
- contribution of CYP2B6 to NMV metabolism (CYP2B6): did not contribute to NMV metabolism
- contribution of CYP3A4 to NMV metabolism (formation of M1–M7) (CYP3A4): contributed the most to all the 7 metabolic pathways of NMV
- decrease in AUC of NMV [2, 4]: ~50%
- decrease in Cmax of NMV [2, 4]: ~50%
- reduction for NMV exposure ([2]; healthy subjects, CYP3A4 inducer carbamazepine, Paxlovid fact sheet ref 16): ~50%
- change of NMV (systemic) exposure (in words) ([2]; healthy subjects, CYP3A4 inhibitor itraconazole, Paxlovid fact sheet ref 16): increased the systemic exposure of NMV
- contribution of CYP1A2 to NMV metabolism (CYP1A2): did not contribute to NMV metabolism
- change of AUC in serum vs control group (in words) [1]: significantly decreased
- change of Cmax in serum vs control group (in words) [1]: significantly decreased
- number of NMV metabolites identified in the incubation with HLM [3]: 7
- contribution of CYP2E1 to NMV metabolism (CYP2E1): did not contribute to NMV metabolism
- contribution of CYP2A6 to NMV metabolism (CYP2A6): did not contribute to NMV metabolism
- contribution of CYP2D6 to NMV metabolism (CYP2D6): did not contribute to NMV metabolism
